Data on 2 compounds can be found in patent US20200378950A1, “Glycosylation site-specific antibodies and anti-cancer compounds” (Detroit R & D, Inc., priority 2019, published 2020).

For test [1], the system named is O-GlcNAcylated p53 in MCF-7 cells. In words: Western blot of O-GlcNAcylated p53 levels in treated MCF-7 cells. The class given is cell-based. To be noted: MCF-7, 24 hr, 2 mM, cytosol-containing supernatants. In general terms: In western blotting, separated proteins are transferred to a membrane and probed.
Description: MCF-7 cells were grown in MEM/EBSS media (Hyclone, Logan, Utah) supplemented with 10% fetal bovine serum and 0.01 mg/mL insulin. […] The glucose concentration of MEM/EBSS and DMEM/F12 media are 6 mM and 18 mM, respectively. Cells were maintained in humidified atmosphere with 95% air and 5% CO2 at 37° C.
MCF-7 cells were grown for 24 hr with treatment of 1% DMSO (negative control) or 2 mM STZ or acetazolamide dissolved in DMSO or 2 mM N^6-methyladenosine 5′-monophosphate dissolved in media. The cells were harvested and cytosol-containing supernatants were obtained.
For test [2], the system named is O-GlcNAcylated c-myc in MCF-7 cells. In words: Western blot of O-GlcNAcylated c-myc levels in treated MCF-7 cells. The class given is cell-based. To be noted: MCF-7, 24 hr treatment, 2 mM, nuclear lysates. As to the method:
MCF-7 cells were grown in MEM/EBSS media (Hyclone, Logan, Utah) supplemented with 10% fetal bovine serum and 0.01 mg/mL insulin. MCF-10A cells were grown in DMEM/F12 media (Hyclone) supplemented with 5% horse serum, […], […], 20 ng/mL EGF, […], 100 units/mL penicillin-streptomycin and 2 mM glutamine. The glucose concentration of MEM/EBSS and DMEM/F12 media are 6 mM and 18 mM, respectively. Cells were maintained in humidified atmosphere with 95% air and 5% CO2 at 37° C.
MCF-7 breast cancer cells were treated for 24 hr with 1% DMSO, with an O-GlcNAcase inhibitor, streptozotocin (STZ), with N^6-methyladenosine 5′-monophosphate [an O-GlcNAcase inhibitor discovered through by screening with the pseudofluorescent substrate 4-methylumbelliferol (4-MU)-GlcNAc (7)] or with media (control) (FIG. 5).
O-GlcNAcase inhibitors, which increased O-GlcNAcylation levels of proteins by preventing cleavage of an O-GlcNAc moiety of Ser or Thr residues, were identified using the antibodies of the present invention. […]
MCF-7 cells were treated for 4 hr with 1% DMSO (negative control) or 2 mM ketoconazole in DMSO and an O-GlcNAcylated c-myc band was detected using a second antibody for O-GlcNAcylated c-myc (Peptide #1-G).

Test [3] deals with Mia Paca-2 pancreatic cancer cells. In words: Wound healing (cell migration) assay, Mia Paca-2. The class given is cell-based. To be noted: Mia Paca-2, 100 μM. As to the method: (§1) Wound healing assays were also carried out to verify inhibition of cell migration after ketoconazole treatment.
(§2) Wound healing assays to measure inhibition of cell migration toward scratched area with and without treatment of 100 μM ketoconazole dissolved in DMSO (final concentration, 1%). Percent of cells migrated toward a scratched field are shown. […] Percent of cells migrated toward a scratched field are shown.

A further test relates to HT29 colon cancer cells. In words: Wound healing (cell migration) assay, HT29. The class given is cell-based, human. To be noted: HT29, 100 μM. As to the method: as §2
Another test relates to SW480 colon cancer cells. As to the kind of experiment: Wound healing (cell migration) assay, SW480. The class given is cell-based, human. To be noted: SW480, 100 μM. As to the method: as §2
Test [4] relates to MCF-7 breast cancer cells. In words: Cell proliferation, MCF-7. The class given is cell-based. As to the method:
Cell proliferation assays were carried out after seeding 3,000-5,000 cells in a 96-well plate with and without treatment of 50 μM ketoconazole dissolved in DMSO (final concentration, 1%) for 72 hr (FIG. 8, Panel A). The cell number was counted after staining the cells with 3-(4,5-dimethylthiazol-2-yl)2,5-diphenyl-tetrazolium bromide (MTT).

Test [5] deals with unmodified c-myc in MCF-7 cells. As to the kind of experiment: Western blot of unmodified c-myc protein in treated MCF-7 cells. The class given is cell-based. To be noted: MCF-7, 4 hr, 2 mM, Peptide #2-N antibody. As to the method:
Western blot analysis was carried out with 10% gel electrophoresis using nuclear lysates obtained from MCF-7 cells with antibodies for O-GlcNAcylated c-myc (Peptide #2-G). […] There was no increase in unmodified c-myc protein after ketoconazole treatment as verified with antibodies for unmodified c-myc (Peptide #2-N) by Western blot analysis.

For another test, the system named is MCF-7 and MCF10A cells. As to the kind of experiment: Lactate dehydrogenase (LDH) cytotoxicity assay, MCF-7 compared with MCF10A. To be noted: 2 mM, 4 hr. The class given is cell-based. As to the method: Increased O-GlcNAcylated c-myc levels in MCF-7 cells induced cell death. MCF-7 tumor cell death after 2 mM ketoconazole treatment was compared with MCF10A normal cell death by LDH cytotoxicity assay. After treatment of cells for 4 hr, extracellular media and Triton X-100 solubilized cells were obtained and oxidation of NADH to NAD+ in both fractions was monitored for 2 min at a 340 nm to obtain total (media+cells) LDH release.

Test [6] deals with PANC1 pancreatic cancer cells. In words: Wound healing (cell migration) assay, PANC1. To be noted: PANC1, 100 μM. The class given is cell-based. As to the method: as §1, §2
Test [7] relates to MCF10CA1A breast cancer cells. As to the kind of experiment: QCM ECMatrix cell invasion assay, MCF10CA1A. The class given is cell-based. To be noted: MCF-10CA1A, 100 μM for 72 hr. As to the method: Cell invasiveness of SW480 and HT29 human colon adenocarcinoma cells and MCF10CA1A breast cancer cells with and without 72 hr treatment with 100 μM ketoconazole was studied in 24-well plates using the QCM ECMatrix cell invasion assay kit (EMD Millipore).

With `CC(=O)Nc1nnc(S(N)(=O)=O)s1` [acetazolamide], the “Levels of O-GlcNAcylated p53” value in test [1] was “potent inducer”. In addition, in test [2], the O-GlcNAcylated c-myc levels entry is given as “did not increase”.

`CC(=O)N1CCN(c2ccc(OCC3COC(Cn4ccnc4)(c4ccc(Cl)cc4Cl)O3)cc2)CC1` (centres unmarked) [ketoconazole]: the “% cells migrated” value in test [3] (0 hr) stood at 0%; in test [3] (24 hr) it was 11.6%; in test [3] (24 hr, listed as Ketoconazole), 10%; in [3] (48 hr), 12%; in test [6] (0 hr), 0%; in test [6] (24 hr), 6%. The “% cells migrated” value in test [6] (48 hr) worked out at 11%. The “Percent of cells migrated” value with HT29 colon cancer cells (0 hr) stood at 0; with HT29 colon cancer cells (24 hr) it was 8; in the test with SW480 colon cancer cells (0 hr), 0; with SW480 colon cancer cells (24 hr) it was 27. In addition, the “inhibition of cell migration” value with HT29 colon cancer cells (24 hours) is “slightly inhibited”; with SW480 colon cancer cells (24 hours), “slightly inhibited”; in [6] (wound healing) it was “failed to inhibit”. The “inhibition of cell proliferation” value in test [4] is listed as “inhibited the proliferation”. In [5], the “unmodified c-myc protein level” value is reported as “no increase”. Further, in the test with MCF-7 and MCF10A cells, the “cell death in MCF-7 cells higher than in MCF10A cells (LDH release)” value is 84%. In [7], the “inhibition of migration in cell invasion assay” value is “partially inhibited”.
